Biological target: T1, Complement C1s subcomponent (Homo sapiens, UniProt P09871)
T1 sequence (P09871 whole entry): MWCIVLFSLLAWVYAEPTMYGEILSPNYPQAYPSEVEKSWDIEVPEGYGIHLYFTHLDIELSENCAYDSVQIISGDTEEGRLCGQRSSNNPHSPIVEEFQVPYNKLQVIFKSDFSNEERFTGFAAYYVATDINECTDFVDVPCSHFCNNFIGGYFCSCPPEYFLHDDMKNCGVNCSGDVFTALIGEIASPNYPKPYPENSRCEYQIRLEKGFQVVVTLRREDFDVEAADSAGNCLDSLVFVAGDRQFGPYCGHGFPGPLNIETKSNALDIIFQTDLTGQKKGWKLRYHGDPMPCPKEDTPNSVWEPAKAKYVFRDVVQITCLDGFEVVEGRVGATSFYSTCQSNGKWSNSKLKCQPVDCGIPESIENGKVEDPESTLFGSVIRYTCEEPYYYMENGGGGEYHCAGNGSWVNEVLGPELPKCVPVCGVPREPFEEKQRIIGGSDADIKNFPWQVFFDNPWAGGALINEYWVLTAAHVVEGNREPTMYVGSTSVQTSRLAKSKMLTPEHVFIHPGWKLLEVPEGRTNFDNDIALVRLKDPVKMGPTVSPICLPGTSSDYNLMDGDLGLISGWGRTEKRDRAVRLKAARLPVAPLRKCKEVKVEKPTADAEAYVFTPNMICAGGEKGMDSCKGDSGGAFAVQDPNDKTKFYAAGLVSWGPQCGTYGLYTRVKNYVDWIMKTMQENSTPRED
Assay: C1s inhibitor IC50 values, dose response, biochemical (AID 787)

| Structure (SMILES) | IC50 [µM] |
| --- | --- |
| CCCCN1C(=O)/C(=C2\SC(N3CCCCC3)=NC2=O)c2ccccc21 [MLS000111979] | > 50 |
| CC1CCCN(C(C(=O)Nc2ccc3c(c2)OCO3)c2ccccc2)C1 (configuration not stated) [MLS000116117] | > 50 |
| CN(CCNC(=O)Cn1c(=O)sc2ccccc21)Cc1ccccc1 [MLS000116175] | > 50 |
| COc1ccc2c(c1)CCc1c(C(=O)NCc3ccc(F)cc3)noc1-2 [MLS000116425] | > 50 |
| Cc1nc(C)c(C(=O)Nc2cccc(C)c2C)o1 [MLS000118537] | > 50 |
| Cn1c(Cn2c(=O)sc3ccccc32)nnc1SCC(=O)NCc1ccccc1Cl [MLS000118585] | > 50 |
| Cc1ccc(CCN2C(=O)CCC2(C)C(=O)NC2CCCC2)cc1 (configuration not stated) [MLS000120119] | > 50 |
| COc1ccccc1S(=O)(=O)Cc1ccc(C(=O)NCCN(C)C)o1 [MLS000120198] | > 50 |
| COc1ccc2cc(CCNC(=O)C(C)C)c(=O)[nH]c2c1 [N-[2-(7-methoxy-2-oxo-1H-quinolin-3-yl)ethyl]-2-methylpropanamide] | > 50 |
| CCCC(=O)Nc1ccc(C(=O)n2nnc3ccccc32)cc1 [N-[4-(1H-1,2,3-benzotriazol-1-ylcarbonyl)phenyl]butanamide] | 0.38 |
| Cc1ccc(-c2noc(CN(C(=O)C34CC5CC(CC(C5)C3)C4)C(C)C)n2)cc1 [N-[[3-(4-methylphenyl)-1,2,4-oxadiazol-5-yl]methyl]-N-propan-2-yl-1-adamantanecarboxamide] | > 50 |
| CCCCn1c(=O)cc(N2CCOCC2)[nH]c1=O [SMR000018178] | > 50 |
| COc1ccc(NC(=O)c2[nH]cnc2C(=O)Nc2ccccc2C)cc1 [SMR000020470] | > 50 |
| CCc1nn(C(C)C(=O)NCCN2CCN(c3cccc(C)c3C)CC2)c(=O)c2cc3occc3n12 (configuration not stated) [SMR000029605] | > 50 |
| COc1ccccc1/N=C/c1nc(-c2ccccc2)oc1OC(C)=O [SMR000039734] | > 50 |
| COc1ccc(NC(=O)CSC2=NC3=C(C(=O)CCC3)C(c3ccco3)C2C#N)c(OC)c1 (configuration not stated) [SMR000042323] | > 50 |
| CCOc1ccc2[nH]c3c(N4CCN(c5ccccn5)CC4)ncnc3c2c1 [SMR000044529] | > 50 |
| Cc1nn(C(=O)c2ccccc2)c2c1C(=O)CC(C)(C)C2 [SMR000069174] | 5.35 |
| CC(=O)c1c(OC(=O)c2ccco2)c2ccccc2n1C [SMR000109417] | 25.9 |
| Cc1cc(OC(=O)c2ccccc2)n(CCC#N)n1 [[2-(2-cyanoethyl)-5-methyl-pyrazol-3-yl] benzoate] | 2.14 |
| CSc1nc(-c2ccco2)nn1C(=O)c1ccc(C)cc1 [[3-(furan-2-yl)-5-methylsulfanyl-1,2,4-triazol-1-yl]-(4-methylphenyl)methanone] | 0.9 |
| CSc1nc(-c2ccco2)nn1C(=O)c1cccs1 [[3-(furan-2-yl)-5-methylsulfanyl-1,2,4-triazol-1-yl]-thiophen-2-ylmethanone] | 0.88 |

Reference: BindingDB's records for doi:10.7270/Q2MP51PC (Pcmd, 2008)
